Consider 18 molecules from patent US20240109873A1, “ANTAGONISTS OF THE MUSCARINIC ACETYLCHOLINE RECEPTOR M4” (Vanderbilt University, priority 2020, published 2024).

Structures are written as SMILES.

Test [1] concerns the target T1, human mAChR M4 (Homo sapiens, UniProt P08173).
T1 construct: expressed in transfected cells; host or cells: CHO-K1 (ATCC), co-transfected with chimeric G protein Gqi5
T1 sequence (P08173 1-479): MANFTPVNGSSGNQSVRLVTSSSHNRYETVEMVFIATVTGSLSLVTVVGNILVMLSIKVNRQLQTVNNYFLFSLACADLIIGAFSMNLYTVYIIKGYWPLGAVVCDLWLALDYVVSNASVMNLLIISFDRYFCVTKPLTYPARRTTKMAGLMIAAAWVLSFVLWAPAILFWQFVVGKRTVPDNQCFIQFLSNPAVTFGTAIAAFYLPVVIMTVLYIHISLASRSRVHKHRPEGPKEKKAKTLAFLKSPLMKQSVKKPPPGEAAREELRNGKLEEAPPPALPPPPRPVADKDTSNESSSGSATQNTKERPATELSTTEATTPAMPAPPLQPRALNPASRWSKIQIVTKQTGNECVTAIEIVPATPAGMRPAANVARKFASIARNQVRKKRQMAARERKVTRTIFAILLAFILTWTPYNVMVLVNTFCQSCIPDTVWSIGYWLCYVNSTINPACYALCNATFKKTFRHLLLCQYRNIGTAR
Nature of the test: mAChR M4 cell-based functional assay (calcium flux, antagonism of EC80 acetylcholine response, M4/Gqi5/CHO-K1 cells). As to conditions: for remaining activity at 30 µM: CHO-K1, % ACh maximum at 30 μM, read-out: Human M4 Emin; for IC50: decrease of the response elicited by an EC80 concentration of acetylcholine, CHO-K1 cells, Gqi5. In a few lines: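 CHO-K1 cells stably expressing human M4 with chimeric Gqi5, loaded with Fluo-4 AM; calcium flux read on FDSS. Compounds (10-point, 1:3 curves) added first, then EC20 acetylcholine at 143 s and EC80 at 268 s. IC50 from decrease of EC80 acetylcholine response, four-parameter logistic fit.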
On the technique in general: A change in cytosolic calcium serves as a functional read-out for many receptors and channels.

The subject of test [2] is mice. Put plainly: haloperidol-induced catalepsy, a model of parkinsonian motor disability. The format is in vivo. The source says:
Furthermore, haloperidol-induced catalepsy, a model of parkinsonian motor disability, is reduced in M4 knockout mice as compared to wild-type controls. […] The reversal by scopolamine was uncommonly robust and more pronounced than we observe with agents targeting a number of other targets being evaluated for potential antiparkinsonian effects, including metabotropic glutamate (mGlu) receptors mGlu4 or mGlu5, A2A adenosine receptors, and NMDA receptors. […] Taken together with the extensive studies of M4 modulation of basal ganglia and motor function, these studies provide compelling evidence that M4 is the dominant mAChR subtype involved in the antiparkinsonian effects of non-selective mAChR antagonists and provide support for discovery and development of selective M4 antagonists for treatment of neurodegenerative disease such as PD, dystonia, tardive dyskinesia and other movement disorders.

On to `FC(F)(F)c1ncccc1-c1ccc(N[C@H]2C[C@@H]3CN(CC4CCOCC4)C[C@@H]3C2)nn1` [Compound 40, (3aR,5s,6aS)-2-((tetrahydro-2H-pyran-4-yl)methyl)-N-(6-(2-(trifluoromethyl)pyridin-3-yl)pyridazin-3-yl)octahydrocyclopenta[c]pyrrol-5-amine], for which, in test [1], the remaining activity at 30 µM turned out to be 3% and the IC50 worked out at 0.74 nM.

As to `[2H]C([2H])(C1CCOCC1)N1C[C@H]2C[C@H](Nc3ccc(-c4cccnc4C(F)(F)F)nc3)C[C@H]2C1` [Compound 41, (3aR,5s,6aS)-2-((tetrahydro-2H-pyran-4-yl)methyl-d2)-N-(2′-(trifluoromethyl)-[2,3′-bipyridin]-5-yl)octahydrocyclopenta[c]pyrrol-5-amine], in test [1], the remaining activity at 30 µM came out at 2% and the IC50 was determined as 8.7 nM.

With `[2H]C([2H])(CC1CCOCC1)N1C[C@H]2C[C@H](Nc3ccc(-c4cccnc4C(F)(F)F)nn3)C[C@H]2C1` [Compound 42, (3aR,5s,6aS)-2-(2-(tetrahydro-2H-pyran-4-yl)ethyl-1,1-d2)-N-(6-(2-(trifluoromethyl)pyridin-3-yl)pyridazin-3-yl)octahydrocyclopenta[c]pyrrol-5-amine], in test [1], the remaining activity at 30 µM was determined as 2% and the IC50 amounted to 1.3 nM.

Take `[2H]C([2H])(C1CCOC(C)(C)C1)N1C[C@H]2C[C@H](Nc3ccc(-c4cccnc4C(F)(F)F)nn3)C[C@H]2C1` (stereo partly drawn) [Compound 43, (3aR,5s,6aS)-2-((2,2-dimethyltetrahydro-2H-pyran-4-yl)methyl-d2)-N-(6-(2-(trifluoromethyl)pyridin-3-yl)pyridazin-3-yl)octahydrocyclopenta[c]pyrrol-5-amine]: in test [1], the remaining activity at 30 µM was determined as 2% and the IC50 amounted to 2.6 nM.

`[2H]C1([2H])CC(C([2H])([2H])N2C[C@H]3C[C@H](Nc4ccc(-c5cccnc5C(F)(F)F)nn4)C[C@H]3C2)CC([2H])([2H])O1` [Compound 44, (3aR,5s,6aS)-2-((tetrahydro-2H-pyran-4-yl-2,2,6,6-d4)methyl-d2)-N-(6-(2-(trifluoromethyl)pyridin-3-yl)pyridazin-3-yl)octahydrocyclopenta[c]pyrrol-5-amine]: in test [1], the remaining activity at 30 µM amounted to 2% and the IC50 worked out at 1.4 nM.

With `[2H]C([2H])(C1CC(C)(C)OC(C)(C)C1)N1C[C@H]2C[C@H](Nc3ccc(-c4cccnc4C(F)(F)F)nn3)C[C@H]2C1` [Compound 45, (3aR,5s,6aS)-2-((2,2,6,6-tetramethyltetrahydro-2H-pyran-4-yl)methyl-d2)-N-(6-(2-(trifluoromethyl)pyridin-3-yl)pyridazin-3-yl)octahydrocyclopenta[c]pyrrol-5-amine], in test [1], the remaining activity at 30 µM was determined as 2% and the IC50 is 14.7 nM.

As for `[2H]C([2H])([C@H]1CCCOC1)N1C[C@H]2C[C@H](Nc3ccc(-c4cccnc4C(F)(F)F)nn3)C[C@H]2C1` [Compound 46, (3aR,5s,6aS)-2-(((R)-tetrahydro-2H-pyran-3-yl)methyl-d2)-N-(6-(2-(trifluoromethyl)pyridin-3-yl)pyridazin-3-yl)octahydrocyclopenta[c]pyrrol-5-amine], in test [1], the remaining activity at 30 µM was 2% and the IC50 stood at 21.7 nM.

For the molecule `[2H]C([2H])([C@@H]1CCCOC1)N1C[C@H]2C[C@H](Nc3ccc(-c4cccnc4C(F)(F)F)nn3)C[C@H]2C1` [Compound 47, (3aR,5s,6aS)-2-(((S)-tetrahydro-2H-pyran-3-yl)methyl-d2)-N-(6-(2-(trifluoromethyl)pyridin-3-yl)pyridazin-3-yl)octahydrocyclopenta[c]pyrrol-5-amine], in test [1], the remaining activity at 30 µM amounted to 2% and the IC50 amounted to 4 nM.

As for `[2H]C([2H])([C@@H]1CCCCO1)N1C[C@H]2C[C@H](Nc3ccc(-c4cccnc4C(F)(F)F)nn3)C[C@H]2C1` [Compound 48, (3aR,5s,6aS)-2-(((S)-tetrahydro-2H-pyran-2-yl)methyl-d2)-N-(6-(2-(trifluoromethyl)pyridin-3-yl)pyridazin-3-yl)octahydrocyclopenta[c]pyrrol-5-amine], in test [1], the remaining activity at 30 µM was determined as 2% and the IC50 was determined as 0.87 nM.

Turning to `[2H]C([2H])([C@H]1CCCCO1)N1C[C@H]2C[C@H](Nc3ccc(-c4cccnc4C(F)(F)F)nn3)C[C@H]2C1` [Compound 49, (3aR,5s,6aS)-2-(((R)-tetrahydro-2H-pyran-2-yl)methyl-d2)-N-(6-(2-(trifluoromethyl)pyridin-3-yl)pyridazin-3-yl)octahydrocyclopenta[c]pyrrol-5-amine], in test [1], the remaining activity at 30 µM came to 2% and the half-maximal inhibitory concentration (IC50) turned out to be 0.55 nM.

For `[2H]C([2H])(C1CCOCC1)N1C[C@H]2C[C@H](Nc3nnc(-c4cccnc4C(F)(F)F)cc3C)C[C@H]2C1` [Compound 50, (3aR,5s,6aS)-N-(4-methyl-6-(2-(trifluoromethyl)pyridin-3-yl)pyridazin-3-yl)-2-((tetrahydro-2H-pyran-4-yl)methyl-d2)octahydrocyclopenta[c]pyrrol-5-amine], in test [1], the remaining activity at 30 µM amounted to 1% and the IC50 was 0.88 nM.

Regarding `[2H]C([2H])([C@H]1COCCO1)N1C[C@H]2C[C@H](Nc3ccc(-c4cccnc4C(F)(F)F)nn3)C[C@H]2C1` [Compound 51, (3aR,5s,6aS)-2-(((S)-1,4-dioxan-2-yl)methyl-d2)-N-(6-(2-(trifluoromethyl)pyridin-3-yl)pyridazin-3-yl)octahydrocyclopenta[c]pyrrol-5-amine], in test [1], the remaining activity at 30 µM stood at 2% and the IC50 was 1.4 nM.

Consider `[2H]C([2H])(C1CCCOCC1)N1C[C@H]2C[C@H](Nc3ccc(-c4cccnc4C(F)(F)F)nn3)C[C@H]2C1` (stereo partly drawn) [Compound 52, (3aR,5s,6aS)-2-(oxepan-4-ylmethyl-d2)-N-(6-(2-(trifluoromethyl)pyridin-3-yl)pyridazin-3-yl)octahydrocyclopenta[c]pyrrol-5-amine], for which, in test [1], the remaining activity at 30 µM turned out to be 2% and the IC50 is 0.58 nM.

As for `[2H]C([2H])(C1CCOCC1(C)C)N1C[C@H]2C[C@H](Nc3ccc(-c4cccnc4C(F)(F)F)nn3)C[C@H]2C1` (stereo partly drawn) [Compound 53, (3aR,5s,6aS)-2-((3,3-dimethyltetrahydro-2H-pyran-4-yl)methyl-d2)-N-(6-(2-(trifluoromethyl)pyridin-3-yl)pyridazin-3-yl)octahydrocyclopenta[c]pyrrol-5-amine], in test [1], the remaining activity at 30 µM stood at 3% and the IC50 turned out to be 2.9 nM.

Turning to `[2H]C([2H])(C1CC2(CC2)CO1)N1C[C@H]2C[C@H](Nc3ccc(-c4cccnc4C(F)(F)F)nn3)C[C@H]2C1` (stereo partly drawn) [Compound 54, (3aR,Ss,6aS)-2-((5-oxaspiro[2.4]heptan-6-yl)methyl-d2)-N-(6-(2-(trifluoromethyl)pyridin-3-yl)pyridazin-3-yl)octahydrocyclopenta[c]pyrrol-5-amine], in test [1], the remaining activity at 30 µM came to 2% and the IC50 was determined as 0.69 nM.

With `[2H]C([2H])(N1C[C@H]2C[C@H](Nc3ccc(-c4cccnc4C(F)(F)F)nn3)C[C@H]2C1)C12COC(C)(C1)C2` [Compound 55, (3aR,5s,6aS)-2-((1-methyl-2-oxabicyclo[2.1.1]hexan-4-yl)methyl-d2)-N-(6-(2-(trifluoromethyl)pyridin-3-yl)pyridazin-3-yl)octahydrocyclopenta[c]pyrrol-5-amine], in test [1], the remaining activity at 30 µM amounted to 3% and the IC50 was determined as 5.5 nM.

In the case of `[2H]C([2H])(C1CCOC2(CCC2)C1)N1C[C@H]2C[C@H](Nc3ccc(-c4cccnc4C(F)(F)F)nn3)C[C@H]2C1` (stereo partly drawn) [Compound 60, (3aR,5s,6aS)-2-((5-oxaspiro[3.5]nonan-8-yl)methyl-d2)-N-(6-(2-(trifluoromethyl)pyridin-3-yl)pyridazin-3-yl)octahydrocyclopenta[c]pyrrol-5-amine], in test [1], the remaining activity at 30 µM worked out at 4% and the IC50 worked out at 1.4 nM.

Take `CN1[C@@H]2C[C@@H](OC(=O)[C@H](CO)c3ccccc3)C[C@H]1[C@@H]1O[C@@H]12` [scopolamine]: the “reduction of catalepsy induced by haloperidol” value in test [2] (M4 KO mice) is “ineffective in reducing catalepsy”. Further, in test [2] (WT mice), the “reversal of catalepsy induced by haloperidol” value is on record as “completely reversed”.

For orientation: IC50 means the concentration needed to halve the response being measured.
